Patent US11116778B2, “Prodrugs of ALOX-15 inhibitors and methods of using the same” (EMPIRICO INC., priority 2019, dated 2021)

Test system: POSTN mRNA
Experiment: POSTN mRNA by RT-qPCR in rabbit nasal mucosa
Type: in vivo
Conditions: rostral and caudal regions; rabbits, compound 5 10 mM intranasal
Method: Six (6) female NZW rabbits were employed in this study. Rabbits were obtained from Covance (Denver Pa.). Rabbits were between approximately 10 and 12 months of age at the time of study start. At time point 0, all animals received 50 μL of solution containing rabbit IL4 (RND Systems/Biotechne) and human IL13 (PreproTech) at a concentration of 0.25 mg/mL each in 0.5×PBS containing 12.5 mg/mL BSA per nostril. This was administered intranasally via a venous catheter attached to a micropipette. The animal was positioned in a supine manner and the venous catheter inserted into the nostril. The volume was introduced into the nasal cavity and the same procedure was repeated with the other nostril. […]
Relative ALOX15 and POSTN mRNA levels in nasal mucosa were measured by RT-qPCR. […] The level of ALOX15 or POSTN mRNA from each sample was measured in triplicate by real-time qPCR on an Applied Biosystems 7500 Fast Real-Time PCR machine using the TaqMan Gene Expression Assay for rabbit ALOX15 (ThermoFisher, assay #Oc03823548_s1). The level of GAPDH mRNA was measured in biplex reactions using TaqMan Gene Expression Assay (ThermoFisher, assay #Oc03823402_g1) and used to determine relative ALOX15 mRNA levels in each well using the delta-delta Ct method. […] Relative POSTN mRNA levels were measured as above using TaqMan Gene Expression Assay specific for rabbit POSTN mRNA (ThermoFisher, assay #Oc06804808_s1). […]

Structure (SMILES): O=C(Nc1ccc(F)cc1Cl)c1nn(COP(=O)(O)O)c(Cl)c1Cl [compound 5, (4,5-dichloro-3-((2-chloro-4-fluorophenyl)carbamoyl)-1H-pyrazol-1-yl)methyl dihydrogen phosphate]
- relative level of POSTN mRNA in nasal mucosa versus vehicle (FIG. 11): lower
